In ChEMBL document CHEMBL6115002, “Discovery of novel sitolactone derivative leading to PANoptosis and differentiation of acute myeloid leukemia cells” (Eur J Med Chem, 2025):
Active and inactive are the calls of the source. No cut-off for these calls is given here.

Experiments:
[1] = AUC(0 to t) in male Sprague-Dawley rat at 200 mg/kg, po measured after 18 hrs LC/MS-MS analysis; assay type: ADME, organism-based; conditions: in vivo
[2] = Half life in male Sprague-Dawley rat at 200 mg/kg, po measured after 18 hrs LC/MS-MS analysis; assay type: ADME, organism-based; conditions: in vivo
WEHI-3 [3] = experiment: Antitumor activity against mouse WEHI-3 cells implanted in Balb/c mouse assessed as reduction in liver metastasis at 100 to 200 mg/kg, po administered daily for 15 days by H and E staining based analysis; assay type: functional, organism-based; conditions: dose 100-200 mg/kg, time 15.0 day
[4] = Half life in male Sprague-Dawley rat at 50 mg/kg, iv measured after 18 hrs LC/MS-MS analysis; assay type: ADME, organism-based; conditions: in vivo
Mus musculus [5] = experiment: Antitumor activity against Balb/c mouse implanted with mouse WEHI-3 cells assessed as reduction in splenomegaly at 1 mg/kg, po administered once daily for 15 days; assay type: functional, organism-based; conditions: time 15.0 day
Mus musculus [6] = experiment: Antitumor activity against Balb/c mouse implanted with mouse WEHI-3 cells assessed as reduction in hepatomegaly at 100 to 200 mg/kg, po administered once daily for 15 days; assay type: functional, organism-based; conditions: dose 100-200 mg/kg, time 15.0 day
[7] = AUC (0 to t) in male Sprague-Dawley rat at 50 mg/kg, iv measured after 18 hrs LC/MS-MS analysis; assay type: ADME, organism-based; conditions: in vivo
[8] = Cmax in male Sprague-Dawley rat at 50 mg/kg, iv measured after 18 hrs LC/MS-MS analysis; assay type: ADME, organism-based; conditions: in vivo
Mus musculus [9] = experiment: Antitumor activity against Balb/c mouse implanted with mouse WEHI-3 cells assessed as reduction in splenomegaly at 100 to 200 mg/kg, po administered once daily for 15 days; assay type: functional, organism-based; conditions: dose 100-200 mg/kg, time 15.0 day
[10] = Cmax in male Sprague-Dawley rat at 200 mg/kg, po measured after 18 hrs LC/MS-MS analysis; assay type: ADME, organism-based; conditions: in vivo
[11] = Oral bioavailability in male Sprague-Dawley rat at 200 mg/kg measured after 18 hrs LC/MS-MS analysis; assay type: ADME, organism-based; conditions: in vivo
Kasumi 1 [12] = experiment: Upregulation of SMARCA4 protein level in human Kasumi 1 cells by pull down based Western blotting analysis; assay type: functional, cell-based
Kasumi 1 [13] = experiment: Upregulation of SMARCA2 protein level in human Kasumi 1 cells by pull down based Western blotting analysis; assay type: functional, cell-based
Kasumi 1 [14] = experiment: Upregulation of SMARCB1 protein level in human Kasumi 1 cells by pull down based Western blotting analysis; assay type: functional, cell-based
Kasumi 1 [15] = experiment: Induction of […] in human Kasumi 1 cells assessed as activation of p-RIPK3 level at 25 to 50 uM incubated for 24 hrs by Western blotting analysis; assay type: functional, cell-based; conditions: dose 25-50 µM
Kasumi 1 [16] = experiment: Induction of apoptosis in human Kasumi 1 cells assessed as increase in cleaved PARP-1 level incubated for 24 hrs by Western blotting analysis; assay type: functional, cell-based; conditions: dose 25-50 µM
WEHI-3 [17] = experiment: Induction of […] in mouse WEHI-3 cells assessed as activation of p-MLKL level at 25 to 50 uM incubated for 24 hrs by Western blotting analysis; assay type: functional, cell-based; conditions: dose 25-50 µM
Kasumi 1 [18] = experiment: Induction of apoptosis in human Kasumi 1 cells assessed as increase in caspase-3 level incubated for 24 hrs by Western blotting analysis; assay type: functional, cell-based; conditions: dose 25-50 µM
Mus musculus [19] = experiment: Antitumor activity against Balb/c mouse implanted with mouse WEHI-3 cells assessed as reduction in hepatomegaly at 1 mg/kg, po administered once daily for 15 days; assay type: functional, organism-based; conditions: time 15.0 day
WEHI-3 [20] = experiment: Induction of apoptosis in mouse WEHI-3 cells assessed as increase in caspase-3 level incubated for 24 hrs by Western blotting analysis; assay type: functional, cell-based; conditions: dose 25-50 µM
Kasumi 1 [21] = experiment: Induction of […] in human Kasumi 1 cells assessed as activation of p-MLKL level at 25 to 50 uM incubated for 24 hrs by Western blotting analysis; assay type: functional, cell-based; conditions: dose 25-50 µM
WEHI-3 [22] = experiment: Induction of apoptosis in mouse WEHI-3 cells assessed as increase in cleaved PARP-1 level incubated for 24 hrs by Western blotting analysis; assay type: functional, cell-based; conditions: dose 25-50 µM
WEHI-3 [23] = experiment: Induction of […] in mouse WEHI-3 cells assessed as activation of p-RIPK3 level at 25 to 50 uM incubated for 24 hrs by Western blotting analysis; assay type: functional, cell-based; conditions: dose 25-50 µM

CC(C)[Si](O[C@H]1CC[C@H]2[C@@H]3CC(CN4CCC[C@H]4CO)C(=O)O[C@@H]3CC[C@]12C)(C(C)C)C(C)C (stereo partly drawn)
AUC(0-t) at 18 h [1]: 19.6 µg·h/mL
half-life [2]: 59.8 min
Activity (WEHI-3 [3]): Active
half-life [4]: 16.3 min
Activity (Mus musculus [5]): Active
Activity (Mus musculus [6]): Active
AUC(0-t) at 18 h [7]: 7.15 µg·h/mL
Cmax [8]: 12.1 µg/mL
Activity (Mus musculus [9]): Active
Cmax [10]: 17.7 µg/mL
bioavailability [11]: 68.6%

CC(C)[Si](O[C@H]1CC[C@H]2[C@@H]3CC(CCCc4cn(CCOCCOCCOCCNC(=O)CCCC[C@@H]5SC[C@@H]6NC(=O)N[C@@H]65)nn4)C(=O)O[C@@H]3CC[C@]12C)(C(C)C)C(C)C (stereo partly drawn)
Activity (Kasumi 1 [12]): Active
Activity (Kasumi 1 [13]): Active
Activity (Kasumi 1 [14]): Active

COC(=O)C[C@](O)(CCCC(C)(C)O)C(=O)O[C@@H]1C(OC)=C[C@]23CCCN2CCc2cc4c(cc2[C@H]13)OCO4
Activity (Kasumi 1 [15]): inactive
Activity (Kasumi 1 [16]): Dose-dependent-effect
Activity (WEHI-3 [17]): inactive
Activity (Kasumi 1 [18]): Dose-dependent-effect
Activity (Mus musculus [19]): Active
Activity (WEHI-3 [20]): Dose-dependent-effect
Activity (Kasumi 1 [21]): inactive
Activity (WEHI-3 [22]): Dose-dependent-effect
Activity (WEHI-3 [23]): inactive
